From patent US12485147B2, “Method for producing cell mass including pituitary tissue, and cell mass thereof” (SUMITOMO CHEMICAL COMPANY, LIMITED, priority 2017, dated 2025)

Legend:
Assay type in all cases: cell-based
[1] = tested on: Human ES cells (KhES-1 strain); assay: Effect of compound treatment before differentiation induction in production of cell mass containing pituitary tissue; bright field observation; conditions: day 28
Description: Human ES cells (KhES-1 strain) were cultured under feeder-free conditions according to the method described in Scientific Reports, 4, 3594 (2014). As the feeder-free medium, StemFit medium was used and, as the feeder-free scaffold, Laminin 511-E8 was used. Specific maintenance culturing operation was performed in the same manner as in Example 1. As a pre-treatment for differentiation induction of the cultured cells, cells under 4 conditions were maintenance cultured under conditions in which, condition in which nothing is simultaneously added with medium change with […] medium (Control), conditions in which 300 nM SAG alone is added (+300 nM SAG), conditions in which 5 μM SB-431542 alone is added (+5 μM SB-431542), and conditions in which SAG and SB431542 are simultaneously added (+SAG/SB) at 6 days after seeding. The next day of the above-mentioned treatment, human ES cells under 4 conditions that reached subconfluence were each subjected to differentiation induction by suspension culturing into a cell mass containing pituitary tissue according to the method described in Example 1. Bright field observation was performed under an inverted microscope on day 28 from the start of suspension culturing (FIGS. 6A-D).

[2] = tested on: Human ES cells (KhES-1 strain); assay: Addition conditions of Sonic hedgehog signal transduction pathway activating substance (SAG) in production of cell mass containing pituitary tissue; bright field observation; conditions: day 28
Description: (§1) Human ES cells (KhES-1 strain, obtained from Kyoto University) were cultured under feeder-free conditions according to the method described in Scientific Reports, 4, 3594 (2014). As the feeder-free medium, StemFit medium was used and, as the feeder-free scaffold, Laminin 511-E8 was used.
(§2) Specific maintenance culturing operation was performed in the same manner as in Example 1.
(§3) Thereafter, suspension culturing in a 96 well plate was started under conditions similar to those in Example 1.
A serum-free medium not containing Y27632 and containing IWP-2, SB-431542, BMP4, and SAG was added at 100 μl per well on day 2 from the start of suspension culturing. BMP4 was added at 3 nM to the medium so that the final concentration in the well would be 1.5 nM. SAG was added at a final concentration of 100, 300, 500, 700 nM, 1, 2, 5 μM as a Sonic hedgehog signal transduction pathway activating substance. The condition without addition of a Sonic hedgehog signal transduction pathway activating substance during the suspension culturing period was taken as the control (-SAG condition, FIG. 5A).
A half amount of the medium was changed with a serum-free medium not containing Y27632 or BMP4, and containing IWP-2, SB-431542, each concentration of SAG on days 6, 10, 13, 17, 21, 24 from the start of suspension culturing. […]

[3] = tested on: Human iPS cells (HC-6 #10 strain); assay: Cell mass from human iPS cells using BMP signal transduction pathway inhibiting substance (K02288) after addition of BMP4; bright field observation and immunostaining; conditions: K02288 300 nM added on day 3, 6 or 10; day 28
Description: Human iPS cells (HC-6 #10 strain, obtained from RIKEN) were cultured under feeder-free conditions according to the method described in Scientific Reports, 4, 3594 (2014). As the feeder-free medium, StemFit medium was used and, as the feeder-free scaffold, Laminin 511-E8 was used.
as §2
The thus-prepared subconfluent human iPS cells were washed with PBS, subjected to an enzyme treatment using Accumax, a serum-free medium for differentiation induction was added, and the cells were scraped from the surface of the culture dish by using a cell scraper and dispersed into single cells by pipetting. Thereafter, the aforementioned human ES cells dispersed into single cells were suspended in 100 μl of a serum-free medium at 9×10^3 cells per well of a non-cell-adhesive 96-well culture plate (PrimeSurface 96V-bottom plate, manufactured by SUMITOMO BAKELITE), and cultured in suspension under the conditions of 37° C., 5% CO2. […]

[4] = tested on: Human ES cells (KhES-1 strain); assay: Timing of addition of BMP4 in production of cell mass from human ES cells; bright field observation; conditions: for structure of cell mass (bright field): observed day 10
Description: as §1, §2, §3
The condition without addition of a BMP signal transduction pathway activating substance during the suspension culturing period was taken as the control (-BMP4 condition, FIG. 3A). Thereafter, in the condition with the addition of a BMP signal transduction pathway activating substance on days 1, 2 or 3 from the start of suspension culturing (Day1-3+BMP4 condition, FIGS. 3B-D), a serum-free medium not containing Y27632 and containing IWP-2, SB-431542, BMP4 was added at 100 μl per well. BMP4 was added at 3 nM to the medium so that the final concentration in the well would be 1.5 nM. […] On day 10 from the start of suspension culturing, bright field observation was performed using an inverted microscope (manufactured by KEYENCE CORPORATION, BIOREVO) (FIGS. 3A-D).

[5] = tested on: Human ES cells (KhES-1 strain); assay: Addition concentration of BMP4 in production of cell mass containing pituitary tissue; bright field observation; conditions: 0.5 nM, 1.5 nM or 5 nM BMP4 added once on day 2; day 28
Description: as §1, §2, §3
A serum-free medium not containing Y27632 and containing IWP-2, SB-431542, BMP4, and SAG was added at 100 μl per well on day 2 from the start of suspension culturing. In this case, the amount of BMP4 to be added was under 4 conditions of 0.5 nM, 1.5 nM, 5 nM and no addition control. BMP4 was added at twice the concentration set for the medium so that the final concentration set for the well could be achieved. SAG was added at 4 μM to the medium so that the final concentration in the well would be 2 μM.
A half amount of the medium was changed with a serum-free medium not containing Y27632 or BMP4 and containing IWP-2, SB-431542 and SAG on days 6, 10, 13, 17, 21 and 24 from the start of suspension culturing.
Bright field observation was performed under an inverted microscope on day 28 from the start of suspension culturing (FIGS. 8A-D).

CNC1CCC(N(Cc2cccc(-c3ccncc3)c2)C(=O)c2sc3ccccc3c2Cl)CC1 (stereo not shown) [SAG]
size of cell mass ([1]; pre-treatment with 300 nM SAG alone vs no addition): cell mass became large | presence of mesenchymal cell ([1]; pre-treatment with 300 nM SAG alone): the presence of a mesenchymal cell could also be confirmed | size of cell mass and formation of pituitary tissue on the surface ([2]; SAG 100 nM, 300 nM, 500 nM, 700 nM, 1 μM or 2 μM compared with 5 μM): the size of the cell mass was larger and formation of pituitary tissue on the surface of cell mass was fine | structure of cell mass (bright field) ([2]; SAG 100, 300, 500, 700 nM, 1, 2, 5 μM added on day 2, compared with no SAG): cell masses with the nonneural epithelial tissue invaginated like Rathke's pouch on the surface and containing neuroepithelium-like tissue and mesenchymal cells in the inside

COc1cc(-c2cc(-c3cccc(O)c3)cnc2N)cc(OC)c1OC [K02288, 3-[6-amino-5-(3,4,5-trimethoxyphenyl)-3-pyridinyl]-phenol]
cell mass formation (bright field) [3]: a cell mass in which nonneural epithelial tissue surrounds neural tissue of the center part was formed

B1: BMP4: BMP protein; BMP signal transduction pathway activating substance (protein, UniProt P12644 293-408, looked up)
Bone morphogenetic protein 4: SPKHHSQRARKKNKNCRRHSLYVDFSDVGWNDWIVAPPGYQAFYCHGDCPFPLADHLNSTNHAIVQTLVNSVNSSIPKACCVPTELSAISMLYLDEYDKVVLKNYQEMVVEGCGCR
effective timing of addition from start of suspension culturing for formation of cell mass coated with nonneural epithelial tissue ([4]; BMP4 1.5 nM): ≤ 72 h | structure of cell mass (bright field) ([4]; BMP4 1.5 nM added on day 1 or day 2): cell masses containing neural tissue and nonneural epithelial tissue and having a two-layer structure in which a center part with a neuroepithelium-like structure is covered with a nonneural epithelium-like layer were formed | structure of cell mass (bright field) ([4]; BMP4 1.5 nM added on day 3 (and day 6)): outer nonneural epithelium-like tissue was not formed | size of embryoid body ([4]; BMP4 added on day 2 compared with day 1, day 10): larger than the embryoid body obtained under the condition with the addition of BMP4 on day 1 | nonneural epithelial structure on surface of cell mass [5]: a nonneural epithelial structure was formed on the surface of the cell mass
